In order of falling logP:
1. C1CC2CCC1C2  3.78
2. BrC1CC2CCC1C2 (stereo unspecified)  3.54
3. ClC1CC2CCC1C2 (stereo unspecified)  3.35
4. C1=CC2CCC1C2  3.24
5. BrC1C2CC3C(C2)C13 (stereo unspecified)  3.11
6. C1C2C3C2C2C1C32 (stereo unspecified)  2.9
7. C1=CC2C=CC1C2  2.67
8. OCC1CC2CCC1C2 (stereo unspecified)  1.99
9. C1CC2CC1C1OC21 (stereo unspecified)  1.58
10. OC1CC2CCC1C2 (stereo unspecified)  1.45
11. OC(C1CC1)C1CC1  1.07
12. OC1CC2C=CC1C2 (stereo unspecified)  0.99
13. O=C1C2CC3C(C2)C13  0.81
14. OC1CC2CCC1C2O (stereo unspecified)  0.4
15. OC1C2CCC(C2)C1O (stereo unspecified)  0.4
16. OC1C2CC3C1C3C2O (stereo unspecified)  -0.42
